The values below come from publication PMC3522796 (Cancer letters, 2012).

“Also recorded” adds a separate entry of the source. Like-named read-outs stand apart in the source and are kept apart here.

Data set [1] relates to mice. Particulars: cited from earlier work.
The test system of data set [2] is M109 subcutaneous lung tumor. The conditions noted are these: cited from earlier work; for Antitumor efficacy: at MTD; for Tumor AUC of PX fold greater than Taxol: i.v.
The test system of data set [3] is microtubule. Particulars: cited from earlier work; for Microtubule assembly: 10 µM.
For data set [4], the system named is human tumor cell lines. The conditions noted are these: variety of human tumor cell lines; cited from earlier work.
Data set [5] deals with metastatic malignant melanoma. The conditions noted are these: Phase III, every 3-week treatment schedule; cited from earlier work.
In data set [6] the test system is P-glycoprotein (P-gp). Particulars: cited from earlier work.
Data set [7] has as its target tubulin (Sus scrofa, UniProt P02554). As to the kind of experiment: Tubulin polymerization assay. It counts as biochemical.
Data set [8] relates to 4T1 mouse mammary carcinoma cells. Description: In-vitro cytotoxicity, MTT assay. In kind it is cell-based. On the technique in general: Formazan colour is commonly taken as a measure of viable cells.
The test system of data set [9] is HeLa cells. Particulars: cited from earlier work.
The conditions of data set [10]: rabbit model; cited from earlier work.
Data set [11] has as its system human MCF-7 cells. The conditions noted are these: 72 h incubation; cited from earlier work.

Sequence of tubulin (P02554 whole entry): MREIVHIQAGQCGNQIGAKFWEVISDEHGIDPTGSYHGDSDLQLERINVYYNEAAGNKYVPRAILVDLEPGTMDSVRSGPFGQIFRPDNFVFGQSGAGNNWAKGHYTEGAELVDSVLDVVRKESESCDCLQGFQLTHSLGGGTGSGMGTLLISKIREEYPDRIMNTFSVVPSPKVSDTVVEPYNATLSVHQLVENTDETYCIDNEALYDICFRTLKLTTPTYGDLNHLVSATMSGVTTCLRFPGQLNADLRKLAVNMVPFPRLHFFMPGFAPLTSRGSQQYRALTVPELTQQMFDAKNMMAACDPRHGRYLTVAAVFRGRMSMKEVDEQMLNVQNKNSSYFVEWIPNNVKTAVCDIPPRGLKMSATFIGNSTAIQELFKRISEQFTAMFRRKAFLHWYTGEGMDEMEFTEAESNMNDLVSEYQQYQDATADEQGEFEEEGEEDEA
Sequence of tubulin (P02550 whole entry partner): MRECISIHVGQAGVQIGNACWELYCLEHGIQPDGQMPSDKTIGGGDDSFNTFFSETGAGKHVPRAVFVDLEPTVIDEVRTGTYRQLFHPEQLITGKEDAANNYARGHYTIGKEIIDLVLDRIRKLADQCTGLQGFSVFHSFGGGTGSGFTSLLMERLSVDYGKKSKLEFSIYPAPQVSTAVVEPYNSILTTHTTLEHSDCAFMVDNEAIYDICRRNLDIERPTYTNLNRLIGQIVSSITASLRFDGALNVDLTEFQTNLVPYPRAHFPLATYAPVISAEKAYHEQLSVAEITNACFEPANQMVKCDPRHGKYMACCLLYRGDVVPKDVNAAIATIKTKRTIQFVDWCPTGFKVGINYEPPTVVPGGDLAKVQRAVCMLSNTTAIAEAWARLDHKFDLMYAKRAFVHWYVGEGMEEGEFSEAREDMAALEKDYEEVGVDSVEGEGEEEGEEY

Turning to `CC/C=C\C/C=C\C/C=C\C/C=C\C/C=C\C/C=C/CCC(=O)O[C@@H](C(=O)O[C@H]1C[C@@]2(O)[C@@H](OC(=O)c3ccccc3)C3[C@](C)(C(=O)[C@H](OC(C)=O)C(=C1C)C2(C)C)[C@@H](O)C[C@H]1OC[C@@]31OC(C)=O)[C@@H](NC(=O)c1ccccc1)c1ccccc1` (stereo partly drawn) [DHA-PX, docosahexaenoic acid-PX], the “MTD fold higher compared to Taxol” value in [1] is on record as 4.4 fold. Also, the Antitumor efficacy entry in data set [2] is listed as “completely eliminated measurable tumors”. Moreover, the “Tumor AUC of PX fold greater than Taxol” value is reported as 1.71 fold in data set [2] (equimolar dose) and 5.79 fold in data set [2] (equitoxic dose). In data set [3], the Microtubule assembly result was “not able to assemble microtubule”. Also, in data set [3], the Microtubule assembly activity result is listed as “does not have microtubule assembly activity”. Also, the Cytotoxic concentration range result in [4] was “µM concentration range”. Also, in [5], the Overall survival entry is on record as “not superior to dacarbazine”. Also, in [6], the P-gp substrate entry is “remains a P-gp substrate”.

What is called IC50 is the concentration needed to halve the response being measured. As for `CC(=O)O[C@H]1C(=O)[C@@]2(C)[C@H]([C@H](OC(=O)c3ccccc3)[C@]3(O)C[C@H](OC(=O)[C@H](O)[C@@H](NC(=O)c4ccccc4)c4ccccc4)C(C)=C1C3(C)C)[C@]1(OC(C)=O)CO[C@@H]1C[C@@H]2O` [PX, Paclitaxel], in [7] (10 µM, 37°C, 3 mg/ml tubulin, standard control 25.3 ± 3.2), the “Vmax of tubulin polymerization” value is reported as 45.0 ± 3.6 mOD/min. The “Effect on tubulin polymerization” value in [7] (10 µM, compared to control) is recorded as “could stabilize microtubule proteins”. Inhibition in data set [8] (Mus musculus, 4T1, 48 h) was half-maximal at 38 ± 1 nM (IC50). Besides, in data set [2], the Antitumor efficacy entry was “did not result in even partial tumor regression”. Besides, the Cytotoxic concentration range result in data set [4] is recorded as “nM range”. Also, the P-gp substrate result in data set [6] is “substrate of P-glycoprotein”.

For the molecule `CCCCCCCCC=CCCCCCCCC(=O)OC(C(=O)OC1CC2(O)C(OC(=O)c3ccccc3)C3C4(OC(C)=O)COC4CC(O)C3(C)C(=O)C(OC(C)=O)C(=C1C)C2(C)C)C(NC(=O)c1ccccc1)c1ccccc1` (stereo not drawn) [2’-oleate-PX], the IC50 was 5500 nM in [9] (24 h incubation, in lipid emulsions); 500 nM in data set [9] (48 h incubation); 150 nM in [9] (72 h incubation, in lipid emulsions); 100 nM in data set [9] (96 h incubation, in lipid emulsions). Also, the “Pharmacokinetics compared to PX formulated in Cremophor EL/Ethanol” value in data set [10] was “significantly greater AUC, higher Cmax, and lower systemic clearance”.

As to `CCCCCC=CCC=CCCCCCCCC(=O)OC(C(=O)OC1CC2(O)C(OC(=O)c3ccccc3)C3C4(OC(C)=O)COC4CC(O)C3(C)C(=O)C(OC(C)=O)C(=C1C)C2(C)C)C(NC(=O)c1ccccc1)c1ccccc1` (stereo not drawn) [2’-linoleic acid-PX], the Microtubule assembly result in data set [3] is “not able to assemble microtubule”.

With `CCCCCCCCCCCCCCC(Br)C(=O)OC(C(=O)OC1CC2(O)C(OC(=O)c3ccccc3)C3C4(OC(C)=O)COC4CC(O)C3(C)C(=O)C(OC(C)=O)C(=C1C)C2(C)C)C(NC(=O)c1ccccc1)c1ccccc1` (stereo not drawn) [2’-α-bromohexadecanoyl-PX], the “Fold less potent compared to PX” value in [11] is 70 fold.

Consider “2’-behenoyl-paclitaxel [Formulation C22-PX]”, for which the “Effect on tubulin polymerization” value was “no effect on tubulin polymerization” in data set [7] (5 µM, compared to control); “no effect on tubulin polymerization; also recorded: no microtubule activity” in data set [7] (10 µM, compared to control); “some tubulin polymerization activity” in [7] (20 µM, compared to control (p < 0.01)). For the same molecule, in data set [8] (4T1 cells), the “IC50 fold higher than PX” value was “about 8 fold”. Besides, in [8] (4T1 cells, MTT, 48 h), it took 282 ± 42 nM to reach half-maximal inhibition (IC50).
